Test results from patent publication US20100292255A1, “Therapeutic Compounds and Their Use in Treating Diseases and Disorders” (Myriad Pharmaceuticals, Inc., priority 2007, published 2010).

System: T1, purified human Hsp90
T1 construct: purified human Hsp90 (Stressgen, SPP-770)
Assay: Hsp90 binding assay: displacement of BODIPY-labeled geldanamycin measured by fluorescence polarization
Details: 5 μM compound; BODIPY-GM 10 nM, Hsp90 30 nM, overnight at room temperature
How it was run: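 Fluorescence polarization measured displacement of BODIPY-geldanamycin (10 nM) from purified human Hsp90 (30 nM). The buffer was HEPES-KOH pH 7.3 with molybdate, NP-40, gamma globulin and DTT, 2% DMSO, overnight at room temperature, ex/em 485/530 nm. % inhibition was calculated against DMSO controls, and points confounded by compound fluorescence were excluded.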

| GM displacement from purified Hsp90 measured by FP Inhibition by 5 μM compd. (%) | Compound |
| --- | --- |
| 40.0 | CCN(CC)C(=O)CN1CCC(CCn2cnc(N)c3nc(Sc4cc5c(cc4Br)OCCO5)nc2-3)CC1 [compound 28, 2-[4-(2-{6-Amino-8-[(7-bromo-2,3-dihydro-1,4-benzodioxin-6-yl)thio]-3H-purin-3-yl}ethyl)piperidin-1-yl]-N,N-diethylacetamide] |
| 23.0 | Nc1ncn(CCn2c(=O)n3n(c2=O)CC=CC3)c2nc(Sc3cc4c(cc3Br)OCO4)nc1-2 [compound 30, 2-(2-{6-Amino-8-[(6-bromo-1,3-benzodioxol-5-yl)thio]-3H-purin-3-yl}ethyl)-5,8-dihydro-1H-[1,2,4]triazolo[1,2-a]pyridazine-1,3(2H)-dione] |
| 9.0 | N#CCCN1CCC(CCn2cnc(N)c3nc(Sc4cc5c(cc4Br)OCO5)nc2-3)CC1 [compound 32] |
| 88.0 | COCC(=O)N1CCC(CCn2cnc(N)c3nc(Sc4cc5c(cc4C#N)OCO5)nc2-3)CC1 [compound 34, 6-[(6-Amino-3-{2-[1-(methoxyacetyl)piperidin-4-yl]ethyl}-3H-purin-8-yl)thio]-1,3-benzodioxole-5-carbonitrile] |
| 35.0 | CO[C@H](C)C(=O)N1CCC(CCn2cnc(N)c3nc(Sc4cc5c(cc4C#N)OCO5)nc2-3)CC1 [compound 36, 6-{[6-Amino-3-(2-{1-[(2R)-2-methoxypropanoyl]piperidin-4-yl}ethyl)-3H-purin-8-yl]thio}-1,3-benzodioxole-5-carbonitrile] |
| 36.0 | CO[C@@H](C)C(=O)N1CCC(CCn2cnc(N)c3nc(Sc4cc5c(cc4C#N)OCO5)nc2-3)CC1 [compound 38, 6-{[6-Amino-3-(2-{1-[(2S)-2-methoxypropanoyl]piperidin-4-yl}ethyl)-3H-purin-8-yl]thio}-1,3-benzodioxole-5-carbonitrile] |
| 33.0 | N#Cc1cc2c(cc1Sc1nc3c(N)ncn(CCC4CCN(C(=O)C5CC5(F)F)CC4)c-3n1)OCO2 (centres unmarked) [compound 40, 6-{[6-Amino-3-(2-{1-[(2,2-difluorocyclopropyl)carbonyl]piperidin-4-yl}ethyl)-3H-purin-8-yl]thio}-1,3-benzodioxole-5-carbonitrile] |
| 77.0 | CS(=O)(=O)N1CCCC(CCn2cnc(N)c3nc(Sc4cc5c(cc4C#N)OCO5)nc2-3)C1 (centres unmarked) [compound 48, 6-[(6-Amino-3-{2-[1-(methylsulfonyl)piperidin-3-yl]ethyl}-3H-purin-8-yl)thio]-1,3-benzodioxole-5-carbonitrile] |

Same assay, conditions: BODIPY-GM 10 nM, Hsp90 30 nM, overnight at room temperature; read-out: GM displacement from purified Hsp90 measured by FP IC 50

| IC50 [nM] | Compound |
| --- | --- |
| 1800 | Nc1ncnc2c1nc(Sc1cc3c(cc1Br)OCO3)n2CCn1c(=O)n2n(c1=O)CC=CC2 [compound 29, 2-(2-{6-Amino-8-[(6-bromo-1,3-benzodioxol-5-yl)thio]-9H-purin-9-yl}ethyl)-5,8-dihydro-1H-[1,2,4]triazolo[1,2-a]pyridazine-1,3(2H)-dione] |
| 900 | Nc1ncnc2c1nc(Sc1cc3c(cc1Br)OCO3)n2CCCn1c(=O)n2n(c1=O)CC=CC2 [compound 31] |
| 300 | COCC(=O)N1CCC(CCn2c(Sc3cc4c(cc3C#N)OCO4)nc3c(N)ncnc32)CC1 [compound 33, 6-[(6-Amino-9-{2-[1-(methoxyacetyl)piperidin-4-yl]ethyl}-9H-purin-8-yl)thio]-1,3-benzodioxole-5-carbonitrile] |
| 500 | CO[C@H](C)C(=O)N1CCC(CCn2c(Sc3cc4c(cc3C#N)OCO4)nc3c(N)ncnc32)CC1 [compound 35, 6-{[6-Amino-9-(2-{1-[(2R)-2-methoxypropanoyl]piperidin-4-yl}ethyl)-9H-purin-8-yl]thio}-1,3-benzodioxole-5-carbonitrile] |
| 550 | CO[C@@H](C)C(=O)N1CCC(CCn2c(Sc3cc4c(cc3C#N)OCO4)nc3c(N)ncnc32)CC1 [compound 37, 6-{[6-Amino-9-(2-{1-[(2S)-2-methoxypropanoyl]piperidin-4-yl}ethyl)-9H-purin-8-yl]thio}-1,3-benzodioxole-5-carbonitrile] |
| 200 | N#Cc1cc2c(cc1Sc1nc3c(N)ncnc3n1CCC1CCN(C(=O)C3CC3(F)F)CC1)OCO2 (centres unmarked) [compound 39, 6-{[6-Amino-9-(2-{1-[(2,2-difluorocyclopropyl)carbonyl]piperidin-4-yl}ethyl)-9H-purin-8-yl]thio}-1,3-benzodioxole-5-carbonitrile] |
| 480 | COCCC(=O)N1CCC(CCn2c(Sc3cc4c(cc3C#N)OCO4)nc3c(N)ncnc32)CC1 [compound 41, 6-[(6-Amino-9-{2-[1-(3-methoxypropanoyl)piperidin-4-yl]ethyl}-9H-purin-8-yl)thio]-1,3-benzodioxole-5-carbonitrile] |
| 500 | COCCOCC(=O)N1CCC(CCn2c(Sc3cc4c(cc3C#N)OCO4)nc3c(N)ncnc32)CC1 [compound 42, 6-{[6-Amino-9-(2-{1-[(2-methoxyethoxy)acetyl]piperidin-4-yl}ethyl)-9H-purin-8-yl]thio}-1,3-benzodioxole-5-carbonitrile] |
| 320 | CO[C@@H](C)C(=O)N1CCC(CCn2c(Sc3cc4c(cc3C#N)OCCO4)nc3c(N)ncnc32)CC1 [compound 43, 7-{[6-Amino-9-(2-{1-[(2S)-2-methoxypropanoyl]piperidin-4-yl}ethyl)-9H-purin-8-yl]thio}-2,3-dihydro-1,4-benzodioxine-6-carbonitrile] |
| 300 | CO[C@H](C)C(=O)N1CCC(CCn2c(Sc3cc4c(cc3C#N)OCCO4)nc3c(N)ncnc32)CC1 [compound 44, 7-{[6-Amino-9-(2-{1-[(2R)-2-methoxypropanoyl]piperidin-4-yl}ethyl)-9H-purin-8-yl]thio}-2,3-dihydro-1,4-benzodioxine-6-carbonitrile] |
| 220 | COCC(=O)N1CCC(CCn2c(Sc3cc4c(cc3C#N)OCCO4)nc3c(N)ncnc32)CC1 [compound 45, 7-[(6-Amino-9-{2-[1-(methoxyacetyl)piperidin-4-yl]ethyl}-9H-purin-8-yl)thio]-2,3-dihydro-1,4-benzodioxine-6-carbonitrile] |
| 700 | CS(=O)(=O)N1CCCCC1CCn1c(Sc2cc3c(cc2C#N)OCO3)nc2c(N)ncnc21 (centres unmarked) [compound 46, 6-[(6-Amino-9-{2-[1-(methylsulfonyl)piperidin-2-yl]ethyl}-9H-purin-8-yl)thio]-1,3-benzodioxole-5-carbonitrile] |
| 90 | CS(=O)(=O)N1CCCC(CCn2c(Sc3cc4c(cc3C#N)OCO4)nc3c(N)ncnc32)C1 (centres unmarked) [compound 47, 6-[(6-Amino-9 {2-[1-(methylsulfonyl)piperidin-3-yl]ethyl}-9H-purin-8-yl)thio]-1,3-benzodioxole-5-carbonitrile] |
| 480 | CS(=O)(=O)N1CCC(CCn2c(Sc3cc4c(cc3C#N)OCO4)nc3c(N)ncnc32)CC1 [compound 49, 6-[(6-Amino-9-{2-[1-(methylsulfonyl)piperidin-4-yl]ethyl}-9H-purin-8-yl)thio]-1,3-benzodioxole-5-carbonitrile] |
| 1200 | CCCN1CCCCC1CCn1c(Sc2cc3c(cc2C#N)OCO3)nc2c(N)ncnc21 (centres unmarked) [compound 50, 6-({6-Amino-9-[2-(1-propylpiperidin-2-yl)ethyl]-9H-purin-8-yl}thio)-1,3-benzodioxole-5-carbonitrile] |
